Experimental data as given in patent US20220315632A1, “COMBINATION OF DIETARY PEPTIDES” (DIET4LIFE APS, priority 2019, published 2022).
Ends that are not written are not given here. Peptide text beside a SMILES is read from it.

Assays:
murine intestinal cells = murine intestinal cells (Mus musculus, UniProt O88319); assay: Ca2+ flux / calcium response assay (cell signaling activity) in murine intestinal cells; assay type: cell-based; settings: FIG. 2, truncation
[1] = system: human (hIC) intestinal cells; assay: Ca2+ flux / calcium response assay in human intestinal cells (hIC); assay type: cell-based; settings: FIG. 2, truncation
Protocol: Elevation of intracellular calcium level was measured using the fluorescent calcium chelating dye Fluo-4 AM (ThermoFischer Scientific, Denmark). Briefly, cells were grown as a monolayer in 96-well tissue culture plates (Sarstedt, Germany) to near confluence in appropriate growth medium as described in the cell culture section. Prior to the start of the assay, the cells were incubated with 1.5 μM Fluo-4 AM in complete culture media mixed 1:1 with Hank's balanced salt solution (HBSS, ThermoFischer Scientific, Denmark) containing 25 mM HEPES (pH 7.4), 1% BSA (Sigma-Aldrich, Denmark), 2% ink (Soluro GMBH, Germany), 0.01% Pluronic F-127 (Sigma-Aldrich, Denmark) and 1 mM Probenecide (Sigma-Aldrich) for 60 minutes at 37° C.
All test compounds were dissolved in water, and then diluted in 1×HBSS containing 25 mM HEPES (pH 7.4), 1% BSA and 2% ink. Without any removal of excess Fluo-4 AM, test compounds were added directly into the wells and fluorescence were measured using instrument settings for excitation at 488 nm and emission at 525 nm in a microtiter plate reader (SpectraMax M5, Molecular Devices, USA).
Human intestinal cell lines were cultured in McCoy's modified 5A medium supplemented with 10% fetal bovine serum and 1% penicillin/streptomycin/neomycin at 37° C. and 5% CO2 in a humidified incubator.

Swiss-Webster females = assay: Chronic feed intake, 3-week daily administration; assay type: in vivo; settings: FIG. 18; liraglutide 3 μg/mouse s.c., DC7-2 1 mg/mouse i.p., sitagliptin 0.025 mg/mouse
From the text: FIG. 18. […] Mice had free access to water and feed in this 3-week study (n=14-18 per group). Significance (P<0.05) is shown as * compared to the corresponding vehicle control.
The effect of DC7-2 alone or in combination with liraglutide on feed intake and body weight was investigated in outbred Swiss-Webster females.

mice [2] = settings: mouse, in vivo, ip, 128 mg/kg
Protocol: Liraglutide reached its maximum inhibition of gastric emptying at doses higher than 3 mg/kg retaining approximately 30% of the phenol red marker solution in the stomach. […] A combination test was designed in which DC7-2 was given at EC50 (3 mg/kg) together with different doses of liraglutide (same as used in dose-response test) (FIG. 17 B). […] This was further supported by the different maximum values observed for liraglutide and DC7-2 alone, respectively.

pepsin = assay: Pepsin degradation (proteolytic digest of meat); settings: present in proteolytic digests
Protocol: Minced meat is diluted 1-10 times with distilled water, adjusted to pH 1-3 with hydrochloric acid, and incubated with 0.01-10% pepsin (w/w) at 4-40° C. for ½-12 h with adequate mixing. Insoluble material is removed by centrifugation at 100-1000 xg for 3-30 min, and supernatant is neutralized with NaOH. Using sterile conditions, low molecular weight peptides in supernatant are recovered by tangential ultrafiltration at 4-40° C. for ½-12 h, and excess water is evaporated at 25-50° C. for up to 12 h. The concentrated dialysate is tested for bioactivity with cells and used for further purification by HPLC.

[3] = Stability of peptides in serum (Fetal Bovine Serum), activity remaining; assay type: in vitro ADME; settings: octapeptides X-SDKPYIL; fraction of peptide activity left after 10 min of incubation in serum at 37° C.
Protocol: All peptides were incubated at 10^−5 M with Fetal Bovine Serum (FBS; final concentration of 66.7%) (Sigma Aldrich, Denmark) at 37° C. for 3 hours. The peptide degradation was terminated using 1 M phosphoric acid (final 0.4 M, pH ˜1.2) and neutralized to pH 7.2-7.4 with NaOH before testing activity in intestinal cells. As for small intestine homogenates, a zero degradation control was included for each peptide.
DC7-2, NT, DKPYIL and NT-(8-13) (final concentration of 10^−6 M) were incubated either with FBS or with 270× diluted intestinal homogenate at 37° C. for various time points with shaking. Degradation was stopped with 1 M phosphoric acid and the samples were subsequently neutralized and immediately tested with intestinal cells as described above. Control for zero degradation was included for each peptide as above.
The 20 hexapeptides with systematic N-terminal substitutions (X-KPYIL) (Schafer-N, Denmark) and NT (8-13) was incubated at 10^−6 M in either FBS for 10 minutes or with 270× diluted intestinal homogenate for 30 minutes at 37° C. with shaking. The degradation was stopped with 1 M phosphoric acid. Peptide solutions were neutralized with NaOH (pH 7.2-7.4), diluted and immediately tested for bioactivity using murine intestinal cells. Determination of EC50 for stimulation of cells allowed calculation of recovered peptide. Systematic substitutions of N-terminal amino acids in octapeptide […] and their importance for activity and stability. Sequence, activity and stability of DC7-2 is italicized.

mice [4] = settings: 1 week of daily exposure in mice; cited from earlier work

Chain of murine intestinal cells (O88319 whole entry, the tested form may be a part): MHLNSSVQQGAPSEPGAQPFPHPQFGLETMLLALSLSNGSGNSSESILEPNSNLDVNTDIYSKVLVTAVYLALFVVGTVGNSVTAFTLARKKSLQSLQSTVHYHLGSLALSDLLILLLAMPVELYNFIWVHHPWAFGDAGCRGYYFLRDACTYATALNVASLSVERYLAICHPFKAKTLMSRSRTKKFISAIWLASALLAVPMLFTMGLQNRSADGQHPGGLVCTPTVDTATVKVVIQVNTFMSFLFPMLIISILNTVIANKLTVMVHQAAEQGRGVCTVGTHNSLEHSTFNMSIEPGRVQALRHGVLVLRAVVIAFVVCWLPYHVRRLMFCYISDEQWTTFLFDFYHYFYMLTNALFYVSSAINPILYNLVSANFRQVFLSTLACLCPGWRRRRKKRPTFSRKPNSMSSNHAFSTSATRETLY

| Stability in serum (activity remaining) [3] [fraction] | Compound | also measured |
| --- | --- | --- |
| – | CC[C@H](C)[C@H](NC(=O)[C@H](Cc1ccc(O)cc1)NC(=O)[C@@H]1CCCN1)C(=O)N[C@@H](CC(C)C)C(=O)O [PYIL] (H-PYIL-OH) | activity compared with the full sequence ASDKPYIL in mIC (murine intestinal cells): two orders of magnitude lower activity; activity in hIC [1]: no activity |
| – | N[C@@H](CC(=O)N1CCn2c(nnc2C(F)(F)F)C1)Cc1cc(F)c(F)cc1F [sitagliptin] | accumulative feed intake after repeated daily administration (Swiss-Webster females): reduces feed intake |
| – | ASDKPYIL [Peptide ID 36036, A SDKPYIL] | inhibition of gastric emptying (mice [2]): ~50%; pepsin degradation (pepsin): resistant to pepsin degradation |
| 0.0988 | ASDKPYIL [compound 36036] | – |
| 0.0963 | CSDKPYIL [compound 36037] | – |
| 0.0947 | DSDKPYIL [compound 36038] | – |
| 0.0964 | ESDKPYIL [compound 36039] | – |
| 0.0944 | FSDKPYIL [compound 36040] | – |
| 0.0912 | GSDKPYIL [compound 36041] | – |
| 0.0980 | HSDKPYIL [compound 36042] | – |
| 0.0956 | ISDKPYIL [compound 36043] | – |
| 0.0527 | KSDKPYIL [compound 36044] | – |
| 0.0917 | LSDKPYIL [compound 36045] | – |
| 0.0762 | MSDKPYIL [compound 36046] | – |
| 0.0872 | NSDKPYIL [compound 36047] | – |
| 0.0772 | PSDKPYIL [compound 36048] | – |
| 0.0742 | QSDKPYIL [compound 36049] | – |
| 0.0735 | RSDKPYIL [compound 36050] | – |
| 0.0609 | SSDKPYIL [compound 36051] | – |
| 0.0535 | TSDKPYIL [compound 36052] | – |
| 0.0488 | VSDKPYIL [compound 36053] | – |
| 0.0426 | WSDKPYIL [compound 36054] | – |
| 0.0491 | YSDKPYIL [compound 36055] | – |
| – | exendin-4 | desensitization of glucose homeostasis (mice [4]): a tendency but not significant difference |
